Marks after values point to notes of the source that are not given here.
Experiments:
Assay type in all cases: in vivo
[1] = system: Kunming mice; assay: Influence on autonomic activity of normal mice (ZIL-2 mice autonomic activity meter, counts within 10 min); conditions: intragastric, x ± s, n = 10; for Times of activities in 1 h after drug administration/10 min: 1 h after administration; for Times of activities in 2 h after drug administration/10 min: 2 h after administration; for Times of activities in 24 h after drug administration/10 min: 24 h after administration
Summary of the method: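 Kunming mice (10 per group, half each sex) were dosed at 25, 50 or 100 mg/kg in 0.5% CMC-Na. Spontaneous activity counts over 10 min were recorded at 1 h, 2 h and 24 h post-dose. Groups were compared by ANOVA with Dunnett's test after Levene's check.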

[2] = system: Kunming mice; assay: Influence on hypnosis effect with pentobarbital sodium doses below the threshold (25 mg/kg i.p.); conditions: pentobarbital sodium 25 mg/kg i.p. 60 min later, sleep observed in 30 min, n = 10
Summary of the method: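 Kunming mice (10 per group, half female) given single oral doses of 25, 50 or 100 mg/kg in 0.5% CMC-Na; 60 min later pentobarbital sodium 25 mg/kg i.p. Sleep (righting reflex lost >1 min) scored within 30 min as percentage asleep, χ2 test.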

[3] = system: Kunming mice; assay: Influence on hypnosis effect with pentobarbital sodium doses at the threshold (50 mg/kg i.p.); conditions: pentobarbital sodium 50 mg/kg i.p. 60 min later, x ± s, n = 10
Summary of the method: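 Kunming mice (10/group, half each sex) received compound in 0.5% CMC-Na intragastrically at 25, 50 or 100 mg/kg; 60 min later given 0.3% sodium pentobarbital 50 mg/kg i.p. Sleep latency and duration recorded by loss of righting reflex over 1 min; ANOVA and χ2 for sleep incidence.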

[4] = test drug 25 mg/kg intragastric single dose
[5] = test drug 50 mg/kg intragastric single dose
[6] = test drug 100 mg/kg intragastric single dose
[7] = 25 mg/kg intragastric single dose
[8] = 50 mg/kg intragastric single dose
[9] = 100 mg/kg intragastric single dose

| SMILES | Times of activities in 1 h after drug administration/10 min ([1]; 25 mg/kg) | Times of activities in 2 h after drug administration/10 min ([1]; 25 mg/kg) | Times of activities in 24 h after drug administration/10 min ([1]; 25 mg/kg) | Times of activities in 1 h after drug administration/10 min ([1]; 50 mg/kg) | Times of activities in 2 h after drug administration/10 min ([1]; 50 mg/kg) | Times of activities in 24 h after drug administration/10 min ([1]; 50 mg/kg) | Times of activities in 1 h after drug administration/10 min ([1]; 100 mg/kg) | Times of activities in 2 h after drug administration/10 min ([1]; 100 mg/kg) | Times of activities in 24 h after drug administration/10 min ([1]; 100 mg/kg) | Number of sleeping animals [2, 4] | rate of sleeping (%) [2, 4] | Number of sleeping animals [2, 5] | rate of sleeping (%) [2, 5] | Number of sleeping animals [2, 6] | rate of sleeping (%) [2, 6] | duration of sleep [3, 7] [min] | time to sleep [3, 7] [min] | duration of sleep [3, 8] [min] | time to sleep [3, 8] [min] | duration of sleep [3, 9] [min] | also measured |
| --- | --- | --- | --- | --- | --- | --- | --- | --- | --- | --- | --- | --- | --- | --- | --- | --- | --- | --- | --- | --- | --- |
| C=Cc1c(C#N)cc(-c2cc(=O)c3c(C=CC)cc(Cc4ccccc4)cc3o2)cc1[N+](=O)[O-] [Example 20] | 320.3 ± 49.7 /10 min | 293.6 ± 45.1 /10 min | 317.4 ± 79.6 /10 min | 283.7 ± 51.3 /10 min | 278.6 ± 47.5 /10 min | 305.2 ± 75.4 /10 min | 267.2 ± 55.3 /10 min | 250.3 ± 47.1 /10 min | 305.7 ± 79.7 /10 min | 4 | 40* % | 6 | 60** % | 6 | 60** % | 38.67 ± 21.87 | 4.33 ± 1.58 | 66.34 ± 22.15 | 3.36 ± 1.20 | 68.09 ± 29.56 | time to sleep [3, 9]: 3.18 ± 1.10 min |
| CC=Cc1cc(C(=O)O)c2c(=O)cc(-c3cc(C#N)c(F)c(C(=O)O)c3)oc2c1 [Example 22] | 320.3 ± 54.3 /10 min | 291.3 ± 42.0 /10 min | 301.3 ± 76.6 /10 min | 299.4 ± 42.7 /10 min | 255.3 ± 41.3 /10 min | 302.6 ± 91.8 /10 min | 281.5 ± 48.7 /10 min | 225.6 ± 45.3 /10 min | 315.4 ± 78.2 /10 min | 6 | 60** % | 7 | 70** % | 9 | 90*** % | 30.12 ± 20.60 | 4.79 ± 2.43 | 37.78 ± 14.02 | 4.68 ± 1.59 | 52.57 ± 20.74 | time to sleep [3, 9]: 3.88 ± 1.18 min |
| CCCc1cc(-c2cc(=O)c3c(I)cc(CCS(=O)(=O)O)cc3o2)cc(C(N)=O)c1C(=O)O [Example 23] | 287.2 ± 45.4 /10 min | 263.2 ± 45.2 /10 min | 307.2 ± 82.1 /10 min | 229.9 ± 40.6 /10 min | 244.7 ± 47.6 /10 min | 300.7 ± 71.4 /10 min | 135.5 ± 35.7 /10 min | 181.0 ± 38.2 /10 min | 292.8 ± 90.5 /10 min | 3 | 30% | 4 | 40* % | 7 | 70** % | 22.77 ± 25.89 | 5.35 ± 2.33 | 28.59 ± 26.98 | 5.17 ± 2.26 | 64.89 ± 45.78 | time to sleep [3, 9]: 3.14 ± 1.21 min |
| CC=Cc1cc(Cc2ccccc2)c2c(=O)cc(-c3cc(C#N)c([N+](=O)[O-])c(Cc4ccccc4)c3)oc2c1 [Example 25] | 286.3 ± 48.9 /10 min | 279.9 ± 41.7 /10 min | 295.2 ± 82.3 /10 min | 185.3 ± 51.1 /10 min | 190.2 ± 56.9 /10 min | 296.3 ± 91.1 /10 min | 135.6 ± 39.4 /10 min | 136.8 ± 47.9 /10 min | 281.6 ± 93.7 /10 min | 4 | 40* % | 7 | 70** % | 7 | 70** % | 41.02 ± 18.97 | 4.41 ± 1.67 | 62.87 ± 28.45 | 3.84 ± 1.31 | 70.23 ± 23.65 | time to sleep [3, 9]: 3.05 ± 1.20 min |
| CC=Cc1cc(-c2cc(=O)c3c(CCCCC)cc(C(=O)O)cc3o2)cc(C(=O)O)c1C#N [Example 26] | 310.7 ± 59.5 /10 min | 279.0 ± 32.2 /10 min | 313.5 ± 68.8 /10 min | 284.7 ± 46.1 /10 min | 267.1 ± 43.5 /10 min | 314.1 ± 82.3 /10 min | 263.6 ± 42.4 /10 min | 245.6 ± 40.8 /10 min | 322.6 ± 61.2 /10 min | 4 | 40* % | 5 | 50** % | 7 | 70** % | 23.01 ± 25.99 | 5.38 ± 2.22 | 28.69 ± 26.56 | 5.12 ± 2.32 | 65.28 ± 46.29 | time to sleep [3, 9]: 3.24 ± 1.16 min |
| COc1ccc(-c2cc(=O)c3cc(OC)c(OC)c(OC)c3o2)cc1OC [Example 27] | 291.3 ± 52.1 /10 min | 282.2 ± 41.5 /10 min | 293.6 ± 82.9 /10 min | 169.6 ± 51.3 /10 min | 193.2 ± 56.4 /10 min | 295.7 ± 92.3 /10 min | 124.2 ± 39.4 /10 min | 138.9 ± 48.9 /10 min | 278.6 ± 92.7 /10 min | 5 | 50** % | 6 | 60** % | 7 | 70** % | 31.32 ± 22.99 | 4.88 ± 1.89 | 60.34 ± 16.90 | 4.15 ± 1.65 | 62.15 ± 33.37 | time to sleep [3, 9]: 3.73 ± 1.47 min |
| N#CSc1ccc(-c2cc(=O)c3cc(N)c(F)c(C#N)c3o2)cc1O [Example 28] | 289.8 ± 50.1 /10 min | 278.3 ± 42.9 /10 min | 315.2 ± 76.3 /10 min | 248.9 ± 61.1 /10 min | 260.8 ± 58.1 /10 min | 327.5 ± 80.7 /10 min | 144.2 ± 32.5 /10 min | 237.5 ± 44.3 /10 min | 308.7 ± 84.7 /10 min | 3 | 30% | 5 | 50** % | 6 | 60** % | 27.68 ± 23.55 | 5.48 ± 2.25 | 46.89 ± 23.61 | 4.31 ± 1.19 | 55.49 ± 21.02 | time to sleep [3, 9]: 3.93 ± 2.45 min |
